Common to all, as to type: functional, cell-based
Test [1] concerns NK92. The experiment in a line: Immunomodulatory activity in human NK92 cells assessed as induction of IFNgamma after 12 hrs by ELISA. On the technique in general: In an ELISA, binding on a coated surface is turned into a signal by an enzyme label.
Test [2] concerns NK92. Kind of test: Immunomodulatory activity in human NK92 cells assessed as induction of IFNgamma at 40 nM after 12 hrs by ELISA.
Test [3] deals with NK92. Kind of test: Immunomodulatory activity in human NK92 cells assessed as induction of IFNgamma at 4 nM after 12 hrs by ELISA.

This is an account of results in ChEMBL document CHEMBL2010678, “Tigliane diterpene esters with IFN γ-inducing activity from the leaves of Aleurites fordii” (Bioorg Med Chem Lett, 2012).

The source made the active and inactive calls. No cut-off for these calls is given here.

Turning to `CCCCCCCCCCCCCCCC(=O)O[C@@H]1[C@@H](C)[C@]2(O)[C@@H]3C=C(C)C(=O)[C@@H]3CC(CO)=C[C@H]2[C@H]2[C@]1(OC(C)=O)[C@@]2(C)CO`, the result with NK92 [1] was inactive.

In the case of `CCCCCCCCCCCCCCCC(=O)O[C@@H]1[C@@H](C)[C@@]2(O)[C@@H](C(=O)C(CO)=C[C@]3(O)C(=O)C(C)=C[C@@H]23)[C@H]2[C@]1(OC(C)=O)[C@@]2(C)CO`, the outcome with NK92 [2] was Active.

`CCCCCCCCCCCCCCCC(=O)O[C@@H]1[C@@H](C)[C@@]2(O)[C@@H](C=C(CO)C[C@]3(O)C(=O)C(C)=C[C@@H]23)[C@@H]2C(C)(C)[C@]12OC(C)=O`: in the test with NK92 [3], the outcome was Active.

On to `CCCCCCCCCCCCCCCC(=O)O[C@@H]1[C@@H](C)[C@@]2(O)[C@@H](C=C(CO)C[C@]3(O)C(=O)C(C)=C[C@@H]23)[C@H]2[C@]1(OC(C)=O)[C@@]2(C)CO`, for which the result in the test with NK92 [3] was Active.

As for `CCCCCCCCCCCCCCCC(=O)O[C@@H]1[C@@H](C)[C@@]2(O)[C@@H](C(=O)C(CO)=C[C@]3(O)C(=O)C(C)=C[C@@H]23)[C@@H]2C(C)(C)[C@]12OC(C)=O`, in the test on NK92 [1], the outcome was inactive.

Turning to `CCCCCCCCCCCCCC(=O)O[C@@H]1[C@@H](C)[C@@]2(O)[C@@H](C=C(CO)C[C@]3(O)C(=O)C(C)=C[C@@H]23)[C@@H]2C(C)(C)[C@]12OC(C)=O`, the outcome in the test with NK92 [1] was Active.
